Data reported in ChEMBL document CHEMBL1201862, “PubChem BioAssay data set” (2004).
Activity calls are given as the source filed them.

Key:
[1] = biological target: Matrix metalloproteinase-14 (Homo sapiens, UniProt P50281); test: Dose Response confirmation of uHTS hits for a small molecule inhibitors of MT1-MMP activation in a fluorescence assay set 2.; assay type: functional
[2] = biological target: Nonstructural protein 1 (Influenza A virus, UniProt Q194T2); assay type: functional, Influenza A virus (A/California/07/2009(H1N1))
[3] = system: HeLa; test: viability loss in HeLa cells – cell-based, ATP luminescence, cherry-pick samples, cytotoxicity control, dose response (AID 687004); assay type: functional; details: Homo sapiens
[4] = general mammalian cell viability loss – activator set, cherry-pick, cytotoxicity control for miR-122 modulator project, dose response (AID 720690); assay type: functional, cell-based;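 further: HEK293T human cells scored for general mammalian cytotoxicity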
[5] = general mammalian cell viability loss – inhibitor set, cherry-pick, set 2, cytotoxicity control for miR-122 modulator project, dose response (AID 720697); assay type: functional, cell-based
[6] = PAX8-dependent cell viability loss – plate reader, dry powder, dose response (AID 743049); assay type: functional, cell-based
[7] = OV-90 cell viability loss – plate reader, dry powder, SA8, PAX8 inhibitor project, dose response (AID 743149); assay type: functional, cell-based
[8] = general cell-killing toxicity readout – plate reader, dry powder samples, cytotoxicity control for PAX8 inhibitor project, dose response (AID 743021); assay type: functional, cell-based
[9] = COV434 cell viability loss – plate reader, dry powder, SA7, cytotoxicity control for PAX8 inhibitor project, dose response (AID 743145); assay type: functional, cell-based
[10] = IGROV1 cell killing – plate reader, dry powder samples, PAX8 inhibitor project, dose response (AID 743043); assay type: functional, cell-based; details: IGROV-1
[11] = reduced cellular PGC1a acetyl-lysine signal – cell-based, cherry-picked samples, dose response (AID 720514); assay type: functional;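 further: potency may reflect raised or lowered acetylation signal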
[12] = A2780 cell killing – plate reader, dry powder samples, cytotoxicity control, dose response (AID 743046); assay type: functional, cell-based
[13] = biological target: Paired box protein Pax-8 (Homo sapiens, UniProt Q06710); test: PAX8 transcriptional activity inhibition in RMG-I – RMG-I cells, luciferase, cherry-pick, dose response (AID 687027); assay type: functional, cell-based;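 further: luciferase reporter driven by Pax8 target thyroperoxidase promoter measured by SteadyGlo luminescence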
[14] = COV362 cell viability loss – plate reader, dry powder, SA12, cytotoxicity control for PAX8 inhibitor project, dose response (AID 743144); assay type: functional, cell-based
[15] = OVCAR8 cell viability loss – plate reader, dry powder samples, PAX8 project, dose response (AID 743197); assay type: functional, cell-based; details: OVCAR-8
[16] = OVCAR4 cell viability loss – plate reader, dry powder, SA11, cytotoxicity control for PAX8 inhibitor project, dose response (AID 743150); assay type: functional, cell-based; details: OVCAR-4
[17] = toxicity toward immortalized ovarian surface epithelium – cell-based, plate reader, dry powder samples, cytotoxicity control for PAX8 inhibitor project, dose response (AID 743045); assay type: functional
[18] = OVCAR-3 cell viability loss – plate reader, dry powder samples, PAX8 inhibitor project, dose response (AID 743044); assay type: functional, cell-based
[19] = Luminescence-based cell-based high throughput dose response assay to identify activators of the DAF-12 from the parasite S. stercoralis (ssDAF-12).; assay type: functional
[20] = biological target: Endoplasmic reticulum aminopeptidase 1 (Homo sapiens, UniProt Q9NZ08); test: inhibition of human ERAP1 enzyme activity – biochemical, cherry-pick, set 2, plate reader, dose response (AID 743314)
[21] = viability inhibitors of stage V gametocytes – luminescence, dose response (AID 1117278); assay type: functional, cell-based;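 further: gametocytes exposed to compound for 24 hours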
[22] = viability loss in human Jurkat cells – cell-based, luminescence, cytotoxicity control for P. falciparum gametocyte viability project, dose response (AID 1117277); assay type: functional;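 further: potency reflects loss of cellular ATP meaning fewer viable cells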
[23] = biological target: Mitogen-activated protein kinase 10 (Homo sapiens, UniProt P53779); test: Dose response biochemical screening assay for inhibitors of c-Jun N-Terminal Kinase 3 (JNK3). [Related pubchem assays: 746 ]
[24] = inhibitors of TRPM1-promoter reporter in SK-MEL-5 – cell-based, luciferase, dry powder, set 8, MITF inhibitor project, dose response (AID 624430); assay type: functional
[25] = MITF: Counter assay: A375 proliferation Measured in Cell-Based System Using Plate Reader - 2084-03_Inhibitor_Dose_DryPowder_Activity_Set8.; assay type: functional; details: A-375
[26] = MITF Orthogonal Assay: SK-MEL-5 CTG Assay Measured in Cell-Based System Using Plate Reader - 2084-02_Inhibitor_Dose_DryPowder_Activity_Set7.; assay type: functional
[27] = biological target: fMet-Leu-Phe receptor (Homo sapiens, UniProt P21462); test: formyl peptide receptor binders – dose response (AID 519); assay type: functional
fMet-Leu-Phe receptor, sequence (P21462 whole entry): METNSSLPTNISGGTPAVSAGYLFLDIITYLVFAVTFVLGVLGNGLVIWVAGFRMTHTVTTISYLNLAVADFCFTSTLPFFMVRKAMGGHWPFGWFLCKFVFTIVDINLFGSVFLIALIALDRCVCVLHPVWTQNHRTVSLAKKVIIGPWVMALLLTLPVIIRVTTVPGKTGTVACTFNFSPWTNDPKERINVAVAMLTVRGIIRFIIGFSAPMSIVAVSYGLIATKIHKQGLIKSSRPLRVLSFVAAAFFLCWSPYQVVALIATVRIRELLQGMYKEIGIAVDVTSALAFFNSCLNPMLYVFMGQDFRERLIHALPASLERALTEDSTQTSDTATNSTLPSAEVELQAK

Paired box protein Pax-8, sequence (Q06710 whole entry): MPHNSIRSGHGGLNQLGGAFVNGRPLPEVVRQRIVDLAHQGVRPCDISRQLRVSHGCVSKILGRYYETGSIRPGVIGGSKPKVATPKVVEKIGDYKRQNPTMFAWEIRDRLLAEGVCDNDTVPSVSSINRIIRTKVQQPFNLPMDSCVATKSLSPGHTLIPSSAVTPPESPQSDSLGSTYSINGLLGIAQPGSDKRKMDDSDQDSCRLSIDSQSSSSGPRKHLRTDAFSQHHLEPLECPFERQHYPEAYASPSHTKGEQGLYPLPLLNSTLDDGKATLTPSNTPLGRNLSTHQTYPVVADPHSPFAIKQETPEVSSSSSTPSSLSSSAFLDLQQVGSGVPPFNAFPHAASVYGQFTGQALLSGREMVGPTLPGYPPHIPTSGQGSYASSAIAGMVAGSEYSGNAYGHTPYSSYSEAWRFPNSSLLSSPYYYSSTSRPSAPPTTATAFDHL
Nonstructural protein 1, sequence (Q194T2 whole entry): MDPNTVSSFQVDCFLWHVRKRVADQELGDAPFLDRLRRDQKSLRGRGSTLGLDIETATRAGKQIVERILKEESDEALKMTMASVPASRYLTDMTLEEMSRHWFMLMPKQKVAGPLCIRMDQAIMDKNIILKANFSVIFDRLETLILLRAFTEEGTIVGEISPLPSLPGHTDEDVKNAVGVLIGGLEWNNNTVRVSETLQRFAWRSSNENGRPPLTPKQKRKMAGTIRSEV
Mitogen-activated protein kinase 10, sequence (P53779 whole entry): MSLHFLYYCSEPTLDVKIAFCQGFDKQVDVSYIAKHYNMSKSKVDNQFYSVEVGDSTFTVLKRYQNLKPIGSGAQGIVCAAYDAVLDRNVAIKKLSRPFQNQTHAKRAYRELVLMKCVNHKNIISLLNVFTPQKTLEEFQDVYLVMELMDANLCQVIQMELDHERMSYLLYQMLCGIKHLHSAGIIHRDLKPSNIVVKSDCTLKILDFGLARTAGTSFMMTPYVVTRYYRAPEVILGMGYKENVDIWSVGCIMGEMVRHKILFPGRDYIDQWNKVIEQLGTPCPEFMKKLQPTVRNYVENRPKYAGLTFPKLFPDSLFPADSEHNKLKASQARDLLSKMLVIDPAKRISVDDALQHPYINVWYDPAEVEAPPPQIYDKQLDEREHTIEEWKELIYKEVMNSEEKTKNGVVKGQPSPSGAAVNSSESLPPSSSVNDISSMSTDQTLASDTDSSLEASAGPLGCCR
Endoplasmic reticulum aminopeptidase 1, sequence (Q9NZ08 whole entry): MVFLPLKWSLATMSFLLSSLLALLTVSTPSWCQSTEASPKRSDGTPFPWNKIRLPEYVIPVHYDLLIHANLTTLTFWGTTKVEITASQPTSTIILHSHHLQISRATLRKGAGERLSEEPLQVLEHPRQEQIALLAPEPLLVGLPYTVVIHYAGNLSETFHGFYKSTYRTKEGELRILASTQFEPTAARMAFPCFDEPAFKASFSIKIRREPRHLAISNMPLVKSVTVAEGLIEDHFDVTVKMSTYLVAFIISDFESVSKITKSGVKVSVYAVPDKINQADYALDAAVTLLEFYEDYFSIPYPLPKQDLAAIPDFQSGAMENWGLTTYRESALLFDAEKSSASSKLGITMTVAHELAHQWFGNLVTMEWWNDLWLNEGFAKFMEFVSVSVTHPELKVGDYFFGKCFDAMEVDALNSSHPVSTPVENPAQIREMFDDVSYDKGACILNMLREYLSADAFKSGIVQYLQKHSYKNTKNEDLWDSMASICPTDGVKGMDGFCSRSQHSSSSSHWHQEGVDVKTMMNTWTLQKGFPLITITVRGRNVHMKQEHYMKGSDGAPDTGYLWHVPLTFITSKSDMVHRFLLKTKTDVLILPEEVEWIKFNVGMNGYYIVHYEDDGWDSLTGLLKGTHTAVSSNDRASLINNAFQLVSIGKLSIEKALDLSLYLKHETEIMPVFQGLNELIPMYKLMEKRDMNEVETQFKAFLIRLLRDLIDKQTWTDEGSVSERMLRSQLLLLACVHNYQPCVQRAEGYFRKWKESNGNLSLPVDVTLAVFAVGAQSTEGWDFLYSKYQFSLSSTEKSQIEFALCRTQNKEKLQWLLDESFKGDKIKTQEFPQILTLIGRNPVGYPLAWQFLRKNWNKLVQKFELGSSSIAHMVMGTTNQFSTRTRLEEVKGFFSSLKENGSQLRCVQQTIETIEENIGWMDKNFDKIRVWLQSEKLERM

CCN1C(=O)/C(=C2\C=Cc3ccccc3N2CC)SC1=S
IC50 [1]: > 80 µM (inactive) | IC50 [2]: 4.15 µM (active)

CC(C)NC(=O)Nc1ccc2c(c1)CC(=O)N([C@H](C)CO)C[C@H](C)[C@H](CN(C)S(=O)(=O)c1ccc(Cl)cc1)O2
AC50 [3]: 37.9 µM (active)

CN1C(=O)c2cc(NS(=O)(=O)c3cccc(F)c3)ccc2OC[C@@H]2O[C@@H](CC(=O)NCCN3CCCCC3)CC[C@H]21
AC50 [4]: 26.1 µM (active) | AC50 [5]: 0.254 µM (active)

CN(C[C@H]1N[C@@H](CO)[C@@H]1c1ccc(C2=CCCC2)cc1)C(=O)c1cccc(F)c1
AC50 [6]: 3.86 µM (active) | AC50 [7]: 7.38 µM (active) | AC50 [8]: 26 µM (active) | AC50 [9]: 6.6 µM (active) | AC50 [10]: 6.12 µM (active) | AC50 [11]: 0.298 µM (active) | AC50 [12]: 11.3 µM (active) | AC50 [13]: 2.47 µM (active) | AC50 [14]: 3.98 µM (active) | AC50 [15]: 3.4 µM (active) | AC50 [16]: 1.37 µM (active) | AC50 [17]: 3.44 µM (active) | AC50 [18]: 4.55 µM (active)

CC1=CC(c2ccccc2)=Nc2ccc(C)cc2N1
IC50 [19]: > 67.5 µM (inactive)

CCNC(=O)[C@H]1[C@H](CO)[C@H]2Cn3c(ccc(/C=C/c4ccccc4)c3=O)[C@@H]1N2
AC50 [20]: 11.3 µM (active)

Cc1nccc(O)c1OCc1ccc(Cl)cc1
IC50 [21]: > 109 µM (inactive) | IC50 [22]: > 83.3 µM (inactive)

CC(=O)Oc1ccc(C(=O)Nc2nccs2)cc1
IC50 [23]: > 31 µM (not active)

O=C1C=C(Nc2cccc(C(F)(F)F)c2)C(=O)c2ccccc21
AC50 [24]: > 70 µM (inactive) | AC50 [25]: > 70 µM (inactive) | AC50 [26]: 0.463 µM (active)

C=CCn1c(O)cc(=O)nc1SCCCC
Ki [27]: 30.3 µM (inactive)
